Key:
β-lactamase CTX-M-14 [1] = target: T1, β-lactamase CTX-M-14 (Klebsiella pneumoniae, UniProt A0A0H3H219); experiment: time-resolved serial crystallography, formed in situ from Ser70-bound boric acid and glycerol (occupancy […]); IC50 is for boric acid combined with glycerol; assay type: biochemical
T1 construct: gene KPHS_p301310

β-lactamase CTX-M-14 [2] = target: T1, β-lactamase CTX-M-14; experiment: time-resolved serial crystallography (bound to Ser70, occupancy up to […]); IC50 by photometric cefotaxime hydrolysis assay; assay type: biochemical

T1 sequence (A0A0H3H219 entry or part of it): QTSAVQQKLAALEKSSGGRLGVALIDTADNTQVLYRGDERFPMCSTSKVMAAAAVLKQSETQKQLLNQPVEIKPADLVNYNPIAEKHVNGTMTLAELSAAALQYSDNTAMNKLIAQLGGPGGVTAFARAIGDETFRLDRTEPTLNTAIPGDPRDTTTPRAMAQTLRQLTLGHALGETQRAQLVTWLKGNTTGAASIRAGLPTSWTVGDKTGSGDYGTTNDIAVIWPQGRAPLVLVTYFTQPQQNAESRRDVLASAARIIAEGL

IC50 (β-lactamase CTX-M-14 [1]) [mM]	SMILES	IC50 (β-lactamase CTX-M-14 [2]) [mM]
3.1 ± 0.4	OCC1COB(O)O1 (racemic) [GBE, glycerol boric acid diester]	–
–	OB(O)O [BAB, boric acid]	2.9 ± 0.4
